Experimental data published in US20240116985A1, “STAPLED PEPTIDES AND METHODS THEREOF” (priority 2020, published 2024).
Read-outs that look alike come from different tables or passages of the source.

Legend:
[1] = biological target: T1, full-length beta-Catenin (Uniprot ID P35222) (Homo sapiens, UniProt P35222); test: Fluorescence polarization IC50 (beta-catenin / 5FAM-TCF4 10-53 competition); type: binding; details: fluorescence polarization; read-out: beta-Catenin FP IC50
T1 construct: 10 nM full-length beta-Catenin (Uniprot ID P35222)
T1 sequence (P35222 1-781): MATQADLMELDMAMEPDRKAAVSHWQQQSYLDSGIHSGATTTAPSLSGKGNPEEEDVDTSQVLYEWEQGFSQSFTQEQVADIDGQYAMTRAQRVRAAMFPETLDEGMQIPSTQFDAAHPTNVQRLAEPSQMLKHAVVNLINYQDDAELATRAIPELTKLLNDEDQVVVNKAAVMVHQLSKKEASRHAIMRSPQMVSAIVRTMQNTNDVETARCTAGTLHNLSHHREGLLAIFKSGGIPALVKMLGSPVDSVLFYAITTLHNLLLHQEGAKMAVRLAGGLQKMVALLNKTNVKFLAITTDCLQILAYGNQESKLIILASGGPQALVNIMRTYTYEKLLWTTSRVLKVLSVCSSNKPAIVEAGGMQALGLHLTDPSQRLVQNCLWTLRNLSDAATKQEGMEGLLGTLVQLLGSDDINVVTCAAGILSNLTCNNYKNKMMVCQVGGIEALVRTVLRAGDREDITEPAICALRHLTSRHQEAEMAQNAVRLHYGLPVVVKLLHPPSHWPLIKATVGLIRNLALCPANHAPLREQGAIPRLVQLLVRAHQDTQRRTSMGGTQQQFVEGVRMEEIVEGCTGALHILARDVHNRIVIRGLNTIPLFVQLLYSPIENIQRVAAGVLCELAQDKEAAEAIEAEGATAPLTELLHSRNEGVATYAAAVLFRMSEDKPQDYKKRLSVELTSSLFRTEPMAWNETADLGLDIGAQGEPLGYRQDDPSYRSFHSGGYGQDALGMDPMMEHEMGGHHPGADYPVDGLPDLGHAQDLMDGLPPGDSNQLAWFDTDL

[2] = tested on: TCF/LEF luciferase Reporter in DLD1 cells; test: TCF reporter assay (DLD1 TCF/LEF luciferase reporter, Bright-Glo); type: cell-based
Procedure, shortened: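 Readouts: Bright-Glo luciferase for reporter signal and CellTiter-Glo for cell viability, with absolute IC50 derived. The reporter clone came from lentiviral TCF/LEF-luciferase transduction of DLD1 cells, seeded 5000 cells/well in RPMI with 4% FBS and exposed overnight to serially diluted compounds.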

[3] = biological target: T2, beta-catenin/TCF4 engagement (Homo sapiens, UniProt P35222); test: Nano-BRET target engagement assay (B-cat-Halo & TCF4-Luc in HEK293 cells); type: cell-based; details: read-out: NanoBRET Abs IC50
T2 construct: expressed in transfected cells; host or cells: HEK293
T2 sequence (P35222 1-781): T1 sequence (P35222 1-781)

[4] = read-out: DLD1 4% Abs IC50, DLD1 reporter, 4%, absolute IC50
[5] = read-out: DLD1 4% Abs IC50, DLD1 reporter assay, 4%, absolute IC50
[6] = read-out: DLD1 4% Abs IC50, DLD1 4%

Compound	IC50 [1] [nM]	IC50 [2, 4] [nM]	IC50 ([3]; absolute IC50) [nM]	IC50 [2, 5] [nM]	IC50 [2, 6] [nM]	IC50 [3] [nM]	IC50 ([2]; absolute IC50, read-out: DLD1 reporter assay Abs IC50) [nM]
CCCC[C@H](NC(=O)[C@H](CC(C)C)NC(=O)[C@H](CCC(N)=O)NC(=O)[C@H](Cc1csc2ccccc12)NC(=O)[C@H](Cc1ccccc1C(F)(F)F)NC(=O)[C@]12CCN(C1)C(=O)OCCCC=CCCCC1(CCCC=CC[C@]3(CCCN3C(C)=O)C(=O)N[C@@H](CC(=O)O)C(=O)N[C@@H](CC(C)(C)C)C(=O)N1)C(=O)N[C@@H](CC(=O)O)C(=O)N[C@@H](Cc1cccc(C(=O)O)c1)C(=O)N[C@@H](C)C(=O)N[C@@H](C)C(=O)N[C@@H](Cc1ccccc1)C(=O)N[C@@H](CC(C)C)C(=O)N2)C(N)=O (stereo partly drawn) [I-2391, Ac-PL3-Asp-Npg-B5-Asp-3COOHF-Ala-Ala-Phe-Leu-PyrS2-2F3MeF-BztA-Gln-Leu-nLeu-NH2]	110	700	8200				
CC(=O)N1CCC[C@]12CC=CCCCC1(CCCC=CCCCOC(=O)N3CC[C@@](C(=O)N[C@@H](Cc4ccccc4C(F)(F)F)C(=O)N[C@@H](Cc4csc5ccccc45)C(=O)N[C@@H](CCC(N)=O)C(=O)N[C@@H](Cc4ccccc4)C(=O)N[C@@H](C)C(N)=O)(C3)NC(=O)[C@H](CC(C)C)NC(=O)[C@H](Cc3ccccc3)NC(=O)[C@H](C)NC(=O)[C@H](C)NC(=O)[C@H](Cc3cccc(C(=O)O)c3)NC(=O)[C@H](CC(=O)O)NC1=O)NC(=O)[C@H](CC(C)(C)C)NC(=O)[C@H](CC(=O)O)NC2=O (stereo partly drawn) [I-2400, Ac-PL3-Asp-Npg-B5-Asp-3COOHF-Ala-Ala-Phe-Leu-PyrS2-2F3MeF-BztA-Gln-Phe-Ala-NH2]	142	800	2500				
CC(=O)N1CCC[C@]12CC=CCCCC1(CCCC=CCCCOC(=O)N3CC[C@@](C(=O)N[C@@H](Cc4ccccc4C(F)(F)F)C(=O)N[C@@H](Cc4csc5ccccc45)C(=O)N[C@@H](CCC(N)=O)C(=O)N[C@@H](CC(C)C)C(=O)NC(C)(C)C(N)=O)(C3)NC(=O)[C@H](CC(C)C)NC(=O)[C@H](Cc3ccccc3)NC(=O)[C@H](C)NC(=O)[C@H](C)NC(=O)[C@H](Cc3cccc(C(=O)O)c3)NC(=O)[C@H](CC(=O)O)NC1=O)NC(=O)[C@H](CC(C)(C)C)NC(=O)[C@H](CC(=O)O)NC2=O (stereo partly drawn) [I-2386, Ac-PL3-Asp-Npg-B5-Asp-3COOHF-Ala-Ala-Phe-Leu-PyrS2-2F3MeF-BztA-Gln-Leu-Aib-NH2]	75.5	700	2800				
CC(=O)N1CCC[C@]12CC=CCCCC1(CCCC=CCCCOC(=O)N3CC[C@@](C(=O)N[C@@H](Cc4ccsc4)C(=O)N[C@@H](Cc4csc5ccccc45)C(=O)N[C@H](C(N)=O)[C@@H](C)O)(C3)NC(=O)[C@H](CC(C)C)NC(=O)[C@H](Cc3ccccc3)NC(=O)[C@H](C)NC(=O)[C@H](C)NC(=O)[C@H](CN(CC(=O)O)CC(F)(F)F)NC(=O)[C@H](CC(=O)O)NC1=O)NC(=O)[C@H](CC(C)(C)C)NC(=O)[C@H](CC(=O)O)NC2=O (stereo partly drawn) [I-1706, Ac-PL3-Asp-Npg-B5-Asp-TfeGA-Ala-Ala-Phe-Leu-PyrS2-3Thi-BztA-Thr-NH2]	24		4800	2700			
CC(=O)N1CCC[C@]12CC=CCCCC1(CCCC=CCCCOC(=O)N3CC[C@@](C(=O)N[C@@H](Cc4ccsc4)C(=O)N[C@@H](Cc4csc5ccccc45)C(=O)N[C@H](CO)[C@@H](C)O)(C3)NC(=O)[C@H](CC(C)C)NC(=O)[C@H](Cc3ccccc3)NC(=O)[C@H](C)NC(=O)[C@H](C)NC(=O)[C@H](Cc3ccccc3C(=O)O)NC(=O)[C@H](CC(=O)O)NC1=O)NC(=O)[C@H](CC(C)(C)C)NC(=O)[C@H](CC(=O)O)NC2=O (single isomer, unassigned) [I-1671, Ac-PL3-Asp-Npg-B5-Asp-2COOHF-Ala-Ala-Phe-Leu-PyrS2-3Thi-BztA-Thro1]	28		8000	1700			
CC(=O)N1CCC[C@]12CC=CCCCC1(CCCC=CCCCOC(=O)N3CC[C@@](C(=O)N[C@@H](Cc4ccccc4C(F)(F)F)C(=O)N[C@@H](Cc4csc5ccccc45)C(=O)N[C@@H](C)C(N)=O)(C3)NC(=O)[C@H](CC(C)C)NC(=O)[C@H](Cc3ccccc3)NC(=O)[C@H](C)NC(=O)[C@H](CCC(N)=O)NC(=O)[C@H](Cn3cc(CC4(C(=O)O)CCCCC4)nn3)NC(=O)[C@H](CC(=O)O)NC1=O)NC(=O)[C@H](CC(C)(C)C)NC(=O)[C@H](CC(=O)O)NC2=O (stereo partly drawn) [I-2520, Ac-PL3-Asp-Npg-B5-Asp-[CH2CChCO2H]TriAzDap-Gln-Ala-Phe-Leu-PyrS2-2F3MeF-BztA-Ala-NH2]	27	5700	5900				
CC(=O)N1CCC[C@]12CC=CCCCC1(CCCC=CCCCOC(=O)N3CC[C@@](C(=O)N[C@@H](Cc4ccsc4)C(=O)N[C@@H](Cc4csc5ccccc45)C(=O)N[C@@H](CCS(C)(=O)=O)C(N)=O)(C3)NC(=O)[C@H](CC(C)C)NC(=O)[C@H](Cc3ccccc3)NC(=O)[C@H](C)NC(=O)[C@H](C)NC(=O)[C@H](Cc3cccc(C(=O)O)c3)NC(=O)[C@H](CC(=O)O)NC1=O)NC(=O)[C@H](CC(C)(C)C)NC(=O)[C@H](CC(=O)O)NC2=O (stereo partly drawn) [I-2061, Ac-PL3-Asp-Npg-B5-Asp-3COOHF-Ala-Ala-Phe-Leu-PyrS2-3Thi-BztA-Met2O-NH2]	13				1800	1900	
CC(=O)N1CCC[C@]12CC=CCCCC1(CCCC=CCCCOC(=O)N3CC[C@@](C(=O)N[C@@H](Cc4ccsc4)C(=O)N[C@@H](Cc4csc5ccccc45)C(=O)N[C@@H](C)C(N)=O)(C3)NC(=O)[C@H](CC(C)C)NC(=O)[C@H](Cc3ccccc3)NC(=O)[C@H](C)NC(=O)[C@H](CCC(N)=O)NC(=O)[C@H](Cc3cccc(C(=O)O)c3)NC(=O)[C@H](CC(=O)O)NC1=O)NC(=O)[C@H](CC(C)(C)C)NC(=O)[C@H](CC(=O)O)NC2=O (stereo partly drawn) [I-1918, Ac-PL3-Asp-Npg-B5-Asp-3COOHF-Gln-Ala-Phe-Leu-PyrS2-3Thi-BztA-Ala-NH2]	5				6500	4000	
CC(=O)N1CCC[C@]12CC=CCCCC1(CCCC=CCCCOC(=O)N3CC[C@@](C(=O)N[C@@H](Cc4ccccc4Cl)C(=O)N[C@@H](Cc4csc5ccccc45)C(=O)N[C@@H](CCC(N)=O)C(N)=O)(C3)NC(=O)[C@H](CC(C)C)NC(=O)[C@H](Cc3ccccc3)NC(=O)[C@H](C)NC(=O)CNC(=O)[C@H](Cc3cccc(C(=O)O)c3)NC(=O)[C@H](CC(=O)O)NC1=O)NC(=O)[C@H](CC(C)(C)C)NC(=O)[C@H](CC(=O)O)NC2=O (stereo partly drawn) [I-1684, Ac-PL3-Asp-Npg-B5-Asp-3COOHF-Gly-Ala-Phe-Leu-PyrS2-2C1F-BztA-Gln-NH2]	13		4500	3400			
CC(=O)N1CCC[C@]12CC=CCCCC1(CCCC=CCCCOC(=O)N3CC[C@@](C(=O)N[C@@H](Cc4ccccc4Cl)C(=O)N[C@@H](Cc4csc5ccccc45)C(=O)N[C@@H](C)CO)(C3)NC(=O)[C@H]([C@@H](C)O)NC(=O)[C@H](Cc3ccccc3)NC(=O)[C@H](C)NC(=O)[C@H](C)NC(=O)[C@H](CC(=O)O)NC(=O)[C@H](CC(=O)O)NC1=O)NC(=O)[C@H](CC(C)(C)C)NC(=O)[C@H](CC(=O)O)NC2=O (stereo partly drawn) [I-1246, Ac-PL3-Asp-Npg-B5-Asp-Asp-Ala-Ala-Phe-Thr-PyrS2-2C1F-BztA-Alao1]	13	16200	24300				15900
CC(=O)N1CCC[C@]12CC=CCCCC1(CCCC=CCCCOC(=O)N3CC[C@@](C(=O)N[C@@H](Cc4ccsc4)C(=O)N[C@@H](Cc4csc5ccccc45)C(=O)N[C@@H](CCC(N)=O)C(N)=O)(C3)NC(=O)[C@H](CC(C)C)NC(=O)[C@H](Cc3ccccc3)NC(=O)[C@H](C)NC(=O)[C@H](C)NC(=O)[C@H](CN(CC(=O)O)Cc3c(F)c(F)c(F)c(F)c3F)NC(=O)[C@H](CC(=O)O)NC1=O)NC(=O)[C@H](CC(C)(C)C)NC(=O)[C@H](CC(=O)O)NC2=O (stereo partly drawn) [I-1632, Ac-PL3-Asp-Npg-B5-Asp-[Pfbn]GA-Ala-Ala-Phe-Leu-PyrS2-3Thi-BztA-Gln-NH2]	10		6500	2600			
CC(=O)N1CCC[C@]12CC=CCCCC1(CCCC=CCCCOC(=O)N3CC[C@@](C(=O)N[C@@H](Cc4ccccc4C(F)(F)F)C(=O)N[C@@H](Cc4csc5ccccc45)C(=O)N[C@@H](CO)C(N)=O)(C3)NC(=O)[C@H](CC(C)C)NC(=O)[C@H](Cc3ccccc3)NC(=O)[C@H](C)NC(=O)[C@H](C)NC(=O)[C@H](Cn3cc(C(C)(C)C(=O)O)nn3)NC(=O)[C@H](CC(=O)O)NC1=O)NC(=O)[C@H](CC(C)(C)C)NC(=O)[C@H](CC(=O)O)NC2=O (stereo partly drawn) [I-2374, Ac-PL3-Asp-Npg-B5-Asp-[CMe2CO2H]TriAzDap-Ala-Ala-Phe-Leu-PyrS2-2F3MeF-BztA-Ser-NH2]	7	2600	3400				
